Laboratory results published in patent US20150150768A1, “Furan Based Composition” (Los Alamos National Security LLC, priority 2013, published 2015).
Where two headings read alike, the source gives them in different places.

What was measured:
[1] = Solubility of system at 1 wt % with hardness; type: physicochemical
Description: Stock solutions of all species were made at 1% by weight in deionized water. […] […] […] Additionally a modified LAS (MLAS) was chosen for comparison.

[2] = Dynamic interfacial tension analysis (dIFT), ascending canola oil drop in aqueous surfactant solution; type: physicochemical; conditions: 200 ppm surfactant, pH 8.3-8.5, canola oil
Description: Method—Dynamic Interfacial Tension Analysis (dIFT) Dynamic Interfacial Tension analysis was performed on a Krüss® DVT30 Drop Volume Tensiometer (Krüss USA, Charlotte, N.C.). The instrument was configured to measure the interfacial tension of an ascending oil drop in the aqueous surfactant solution. The oil used was canola oil (Crisco Pure Canola Oil manufactured by The J.M. Smucker Company). The aqueous surfactant and oil phases were temperature controlled at 21.1° C. (+/−1° C.), via a recirculating water temperature controller attached to the tensiometer. A dynamic interfacial tension curve was generated by dispensing the oil drops into the aqueous surfactant phase from an ascending capillary with an internal diameter of 0.2540 mm, over a range of flow rates and measuring the interfacial tension at each flow rate. Data is generated at oil dispensing flow rates of 500 μL/min to 1 μL/min with 2 flow rates per decade on a logarithmic scale (7 flow rates measured in this instance). Interfacial tension was measured on three oil drops per flow rate and then averaged. Interfacial tension was reported in units of mN/m. Surface age of the oil drops at each flow rate is also recorded and plots can be generated either of interfacial tension (y-axis) versus oil flow rate (x-axis) or interfacial tension (y-axis) versus oil drop surface age (x-axis). […] Example of analysis of a 200 ppm surfactant concentration, with water hardness (3:1 Ca:Mg) of 6 or 20 grains per gallon (gpg) as noted, 21.1° C., pH 8.3-8.5: Sample was analyzed as described above. Density settings for 21.1° C. were set at 0.917 g/ml for Canola Oil and 0.998 g/ml for aqueous surfactant phase (assumed to be the same as water since dilute solution). To a 100 ml volumetric flask was added 2.00 mL of 1% (wt/wt) Surfactant solution in deionized water and the volumetric is then filled to the mark with 6.12 gpg water for target 6 gpg solution or 20.408 gpg water for target 20 gpg solution, (3:1 CaCl2:MgCl2 solution) and mixed well. The solution was transferred to a beaker and the pH adjusted to 8.3-8.5 by addition of a few drops of 0.1 N NaOH or 0.1 N H2SO4. The solution is then loaded into the tensiometer measurement cell and analyzed. Total time from addition of hardness to surfactant to time loaded into tensiometer is 5 minutes. The following surfactants were analyzed via dIFT measurements. Surfactants were analyzed at a level of 200 ppm. Analysis conditions are in water of both 6 and 20 gpg Calcium/Magnesium water hardness level (3:1 calcium:magnesium), 21.1° C. and adjusted to pH 8.3-8.5.

[3] = 1% solution by weight in deionized water
[4] = 1% solution by weight in deionized water, heated to approximately 55° C.
[5] = aliquot of 1% solution diluted to 200 ppm with 6.122 gpg water
[6] = solution hardness 6 gpg (3:1 Calcium:Magnesium)
[7] = solution hardness 20 gpg (3:1 Calcium:Magnesium)

Compound | Soluble at Room Temperature [1, 3] | Soluble after heating to ≈55° C. [1, 4] | Soluble after addition of 6 gpg hardness (for at least 30 minutes) [1, 5] | IFT @ 1 μL/min Oil Flowrate, 21.1° C. [2, 6] [mN/m] | IFT @ 1 μL/min Oil Flowrate, 21.1° C. [2, 7] [mN/m] | Soluble after addition of 6 gpg hardness (for at least 30 minutes) [1] | Soluble after heating to ≈55° C. [1] | Soluble at Room Temperature [1]
CCCCCCCCCC(C)c1ccc(S(=O)(=O)[O-])o1.[Na+] (centres unmarked) [C11 2-furan AFS, sodium 5-(undecan-2-yl)furan-2-sulfonate] | Yes | Yes | Yes | 7.25 | 4.03 |  |  | 
CCCCCCCCCCCCc1ccc(S(=O)(=O)[O-])o1.[Na+] [C12 1-furan AFS, sodium 5-dodecanfuran-2-sulfonate] |  |  |  | 0.31 | 0.25 |  |  | 
CCCCCCCCCCC(C)c1ccc(S(=O)(=O)[O-])o1.[Na+] (centres unmarked) [C12 2-furan AFS, sodium 5-(dodecan-2-yl)furan-2-sulfonate] | Yes | Yes | Yes | 1.15 | 0.94 |  |  | 
CCCCCCCCCCC(C)c1ccc(S(=O)(=O)O)cc1 (centres unmarked) [C12 2-phenyl LAS, reference compound] | No | Yes | did not remain soluble and No |  |  |  |  | 
CCCCCCCCCCCCCc1ccc(S(=O)(=O)[O-])o1.[Na+] [C13 1-furan AFS, sodium 5-tridecanfuran-2-sulfonate] |  |  |  | 0.08 | 0.08 | Yes | Yes | No
sodium 5-dodecanfuran-2-sulfonate [C12 1-furan AFS] | No | Yes | Yes |  |  |  |  | 
